Data taken from patent US9346801B2, “Substituted 7-oxo-pyrido[2,3-d]pyrimidines and methods of use” (AMGEN INC., priority 2013, dated 2016).

Columns and labels:
Format in all cases: cell-based
[1] = tested on: H1975 (T790M/L858R) NSCLC cells; assay: Inhibition of proliferation of NSCLC cell lines, H1975; details: Cell Titer Glow; for H1975 cell killing IC50: 72 h; for IC50: Homo sapiens, NCI-H1975, 72 h, read-out: H1975 cell killing IC50
Procedure: (§1) NSCLC cell lines H1975 (T790M/L858R), HCC827 (Δ746-750) and A549 (wild-type) were seeded in 96-well tissue culture plates (Corning, Lowell, Mass.) at 5,000 cells/well (H1975) and 4,000 cells/well (HCC827 and A549) in 95 μL of cell growth media overnight. Compounds starting at 10 mM concentration and diluted 8 times (4-fold dilutions) in DMSO were diluted 50 fold in RPM1 then 5 μL was added to cells. After 72 h, viable cell signal was quantified using Cell Titer Glow (Promega, Madison, Wis.) and a SpectraMax M5 plate reader (Molecular Devices, Sunnyvale, Calif.) per manufacturer's instructions. Final DMSO concentration in test and control wells was 0.1%. No DSMO effect was noted on cell growth.

[2] = target: T1, T790M mutant EGFR phosphorylation in H1975 (T790M/L858R) NSCLC cells (Homo sapiens, UniProt P00533, L858R/T790M); assay: Detection of pEGFR on NSCLC cell lines (MSD multiplex), H1975; details: serum starved, 60 min compound
T1 construct: endogenous in cells; host or cells: H1975 NSCLC cells
T1 sequence (P00533 25-1210 T790M/L858R): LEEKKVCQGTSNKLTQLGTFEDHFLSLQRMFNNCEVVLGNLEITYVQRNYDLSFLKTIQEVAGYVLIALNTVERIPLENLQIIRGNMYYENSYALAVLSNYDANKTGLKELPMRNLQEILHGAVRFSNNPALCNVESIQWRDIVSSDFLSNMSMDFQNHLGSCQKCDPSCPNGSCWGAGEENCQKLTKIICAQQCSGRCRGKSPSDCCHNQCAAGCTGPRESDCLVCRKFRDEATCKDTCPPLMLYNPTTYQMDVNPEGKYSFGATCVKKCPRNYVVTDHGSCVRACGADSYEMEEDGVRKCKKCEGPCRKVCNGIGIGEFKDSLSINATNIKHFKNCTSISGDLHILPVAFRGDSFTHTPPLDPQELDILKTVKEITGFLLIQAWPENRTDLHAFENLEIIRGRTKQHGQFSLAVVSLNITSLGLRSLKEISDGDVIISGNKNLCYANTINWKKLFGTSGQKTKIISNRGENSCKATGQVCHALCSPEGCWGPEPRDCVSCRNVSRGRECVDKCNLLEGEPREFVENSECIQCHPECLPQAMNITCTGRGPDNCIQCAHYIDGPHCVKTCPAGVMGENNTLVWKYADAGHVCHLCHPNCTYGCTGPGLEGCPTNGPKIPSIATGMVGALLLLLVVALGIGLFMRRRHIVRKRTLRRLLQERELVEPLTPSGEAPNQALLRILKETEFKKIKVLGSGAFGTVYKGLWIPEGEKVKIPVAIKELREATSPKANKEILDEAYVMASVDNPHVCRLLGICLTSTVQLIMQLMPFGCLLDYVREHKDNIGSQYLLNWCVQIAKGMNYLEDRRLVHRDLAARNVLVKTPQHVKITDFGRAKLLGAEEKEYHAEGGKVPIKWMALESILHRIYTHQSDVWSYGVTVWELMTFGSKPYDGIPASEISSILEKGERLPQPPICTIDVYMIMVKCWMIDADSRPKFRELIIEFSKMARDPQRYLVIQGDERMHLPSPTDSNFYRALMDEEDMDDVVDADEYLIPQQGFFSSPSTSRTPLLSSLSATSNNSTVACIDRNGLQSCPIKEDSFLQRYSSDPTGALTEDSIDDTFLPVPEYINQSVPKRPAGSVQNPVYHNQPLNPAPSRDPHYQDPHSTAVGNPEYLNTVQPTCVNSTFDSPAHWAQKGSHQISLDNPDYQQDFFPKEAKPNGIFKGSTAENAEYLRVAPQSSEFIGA
Procedure: (§2) The effects of compounds on the phosphorylation of wild-type, T790M mutant, and Exon19 deletion (A746-750) EGFR were monitored using Mesoscalc™ multiplex assays (MSD), in which levels of phosphorylated EGFR protein were determined using total […] levels as a control. H1975 (T790M/L858R), HCC827 (Δ746-750) and A549 (wild-type EGFR) NSCLC cells were plated on 6-well tissue culture plates, serum starved for overnight and treated with 9 concentrations of compound starting at 2 μM (5-fold dilutions) for 60 min. Wild-type A549 cells were challenged with 100 ng/ml EGF for 15 min before collection. Cells were lysed according to manufacturer's instructions and lysates processed for analysis in the […]) multiplex plate reader.

[3] = target: T2, wild-type EGFR phosphorylation in A549 NSCLC cells (Homo sapiens, UniProt P00533); assay: Detection of pEGFR on NSCLC cell lines (MSD multiplex), A549; details: 60 min compound, 100 ng/ml EGF for 15 min
T2 construct: Wild-type A549 cells were challenged with 100 ng/ml EGF for 15 min before collection; endogenous in cells; host or cells: A549 NSCLC cells
T2 sequence (P00533 25-1210): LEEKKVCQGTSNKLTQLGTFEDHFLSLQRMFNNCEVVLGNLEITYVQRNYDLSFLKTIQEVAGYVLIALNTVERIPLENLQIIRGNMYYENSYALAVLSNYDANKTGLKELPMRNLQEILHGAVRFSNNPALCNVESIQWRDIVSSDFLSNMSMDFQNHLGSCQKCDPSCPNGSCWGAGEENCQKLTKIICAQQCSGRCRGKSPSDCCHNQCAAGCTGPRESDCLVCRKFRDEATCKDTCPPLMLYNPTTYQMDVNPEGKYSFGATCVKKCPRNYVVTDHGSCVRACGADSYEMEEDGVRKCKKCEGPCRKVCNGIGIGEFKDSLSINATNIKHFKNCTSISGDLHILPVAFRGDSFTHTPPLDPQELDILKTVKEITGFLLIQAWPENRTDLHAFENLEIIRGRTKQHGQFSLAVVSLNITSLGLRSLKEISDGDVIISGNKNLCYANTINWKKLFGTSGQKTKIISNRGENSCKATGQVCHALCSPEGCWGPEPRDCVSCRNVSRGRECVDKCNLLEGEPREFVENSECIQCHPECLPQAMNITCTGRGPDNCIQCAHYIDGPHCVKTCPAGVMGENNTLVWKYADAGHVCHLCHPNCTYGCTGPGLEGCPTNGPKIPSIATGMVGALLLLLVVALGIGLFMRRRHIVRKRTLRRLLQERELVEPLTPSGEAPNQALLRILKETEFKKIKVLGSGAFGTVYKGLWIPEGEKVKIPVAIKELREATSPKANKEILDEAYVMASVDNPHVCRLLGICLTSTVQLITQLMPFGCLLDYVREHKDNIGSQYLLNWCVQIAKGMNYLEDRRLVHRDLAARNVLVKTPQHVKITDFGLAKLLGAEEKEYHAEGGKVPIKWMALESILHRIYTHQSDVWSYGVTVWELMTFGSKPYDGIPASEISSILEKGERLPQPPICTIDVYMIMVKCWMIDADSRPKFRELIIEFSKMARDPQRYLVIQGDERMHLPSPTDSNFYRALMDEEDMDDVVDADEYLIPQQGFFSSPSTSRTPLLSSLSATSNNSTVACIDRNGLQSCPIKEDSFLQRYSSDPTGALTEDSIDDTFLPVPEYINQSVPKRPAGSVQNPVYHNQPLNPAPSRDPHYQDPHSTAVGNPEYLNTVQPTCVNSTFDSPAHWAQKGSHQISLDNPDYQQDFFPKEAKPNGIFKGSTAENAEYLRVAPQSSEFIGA
Procedure: as §2

[4] = tested on: HCC827 (Δ746-750) NSCLC cells; assay: Inhibition of proliferation of NSCLC cell lines, HCC827; details: Homo sapiens, 72 h, Cell Titer Glow, read-out: HCC827 cell killing IC50
Procedure: as §1

[5] = target: T3, Exon19 deletion (Δ746-750) EGFR phosphorylation in HCC827 NSCLC cells (Homo sapiens, UniProt P00533, DEL746-750); assay: Detection of pEGFR on NSCLC cell lines (MSD multiplex), HCC827; details: HCC827 (Δ746-750) cells, serum starved, 60 min compound
T3 construct: endogenous in cells; host or cells: HCC827 NSCLC cells
T3 sequence (P00533 with tags, fused parts or gaps DEL746-750): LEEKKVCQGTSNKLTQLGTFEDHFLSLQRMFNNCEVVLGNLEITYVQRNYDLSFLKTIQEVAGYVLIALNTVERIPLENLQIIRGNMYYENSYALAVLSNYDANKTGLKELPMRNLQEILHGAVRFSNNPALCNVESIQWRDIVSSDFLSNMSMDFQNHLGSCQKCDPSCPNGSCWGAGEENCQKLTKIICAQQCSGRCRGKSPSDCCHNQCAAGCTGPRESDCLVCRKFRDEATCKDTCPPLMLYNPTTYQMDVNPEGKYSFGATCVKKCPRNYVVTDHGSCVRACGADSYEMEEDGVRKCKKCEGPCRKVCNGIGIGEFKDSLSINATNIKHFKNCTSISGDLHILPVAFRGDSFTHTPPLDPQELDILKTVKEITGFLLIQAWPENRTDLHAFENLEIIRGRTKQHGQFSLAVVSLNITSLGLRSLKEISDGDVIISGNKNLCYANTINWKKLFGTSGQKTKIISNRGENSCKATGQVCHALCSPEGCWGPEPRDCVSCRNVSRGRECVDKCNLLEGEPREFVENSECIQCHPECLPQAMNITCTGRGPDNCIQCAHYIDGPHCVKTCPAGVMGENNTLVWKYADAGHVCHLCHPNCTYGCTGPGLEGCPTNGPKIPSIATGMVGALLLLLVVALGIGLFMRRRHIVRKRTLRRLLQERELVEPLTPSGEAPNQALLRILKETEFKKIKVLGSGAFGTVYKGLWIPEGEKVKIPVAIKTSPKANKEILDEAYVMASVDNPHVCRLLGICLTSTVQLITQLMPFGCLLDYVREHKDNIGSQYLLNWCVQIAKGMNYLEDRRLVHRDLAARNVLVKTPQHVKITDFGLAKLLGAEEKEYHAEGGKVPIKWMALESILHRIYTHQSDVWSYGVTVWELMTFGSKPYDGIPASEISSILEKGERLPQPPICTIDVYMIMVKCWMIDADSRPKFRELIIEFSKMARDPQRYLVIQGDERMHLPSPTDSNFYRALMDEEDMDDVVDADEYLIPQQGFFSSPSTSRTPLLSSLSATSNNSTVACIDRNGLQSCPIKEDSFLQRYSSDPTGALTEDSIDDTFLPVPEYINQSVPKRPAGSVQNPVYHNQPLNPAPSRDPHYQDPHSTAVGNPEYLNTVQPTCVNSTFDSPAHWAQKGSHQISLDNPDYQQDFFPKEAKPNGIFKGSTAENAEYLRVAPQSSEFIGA
Procedure: as §2

IC50 [2] [nM]	IC50 [3] [nM]	IC50 [5] [nM]	SMILES	H1975 cell killing IC50 [1]	IC50 [1] [nM]	IC50 [4] [nM]
–	–	–	C=CC(=O)Nc1cccc(-n2c(=O)ccc3cnc(Nc4ccc(N5CCOCC5)cc4OC)nc32)c1 [Example 2, N-(3-(2-((2-methoxy-4-(4-morpholinyl)phenyl)amino)-7-oxopyrido[2,3-d]pyrimidin-8(7H)-yl)phenyl)-2-propenamide]	undefined	–	–
2	84	–	C=CC(=O)Nc1ccc(F)c(-n2c(=O)ccc3cnc(Nc4ccc(N5CCN(C)CC5)cc4OC)nc32)c1 [Example 10, N-(4-fluoro-3-(2-((2-methoxy-4-(4-methyl-1-piperazinyl)phenyl)amino)-7-oxopyrido[2,3]pyrimidin-8(7H)-yl)phenyl)-2-propenamide]	–	4	4
–	–	–	COc1cc(N2CCN(C)CC2)ccc1Nc1ncc2ccc(=O)n(-c3cccc(NC(=O)/C=C/CN(C)C)c3)c2n1 [Example 9, (2E)-4-(dimethylamino)-N-(3-(2-((2-methoxy-4-(4-methyl-1-piperazinyl)phenyl)amino)-7-oxopyrido[2,3-d]pyrimidin-8(7H)-yl)phenyl)-2-butenamide]	–	361	53
–	–	–	C=CC(=O)Nc1cccc(-n2c(=O)cc(C)c3cnc(Nc4ccc(NC5CN(CCF)C5)cc4OC)nc32)c1 [Example 16, N-(3-(2-((4-((1-(2-fluoroethyl)-3-azetidinyl)amino)-2-methoxyphenyl)amino)-5-methyl-7-oxopyrido[2,3-d]pyrimidin-8(7H)-yl)phenyl)-2-propenamide]	–	22	18
6	155	5	C=CC(=O)Nc1cccc(-n2c(=O)ccc3cnc(Nc4ccc(NC5CN(CCF)C5)cc4OC)nc32)c1 [Example 11, N-(3-(2-((4-((1-(2-fluoroethyl)-3-azetidinyl)amino)-2-methoxyphenyl)amino)-7-oxopyrido[2,3-d]pyrimidin-8(7H)-yl)phenyl)-2-propenamide]	–	9.6	3
–	–	–	COc1cc(N2CCN(C)CC2)ccc1Nc1ncc2ccc(=O)n(-c3cccc(NC(=O)CCl)c3)c2n1 [Example 12, 2-chloro-N-(3-(2-((2-methoxy-4-(4-methyl-1-piperazinyl)phenyl)amino)-7-oxopyrido[2,3-d]pyrimidin-8(7H)-yl)phenyl)acetamide]	–	680	18
3.2	76	3.4	C=CC(=O)Nc1cccc(-n2c(=O)ccc3cnc(Nc4ccc(N5CCN(C)CC5)cc4OC)nc32)c1 [Example 1, N-(3-(2-((2-methoxy-4-(4-methyl-1-piperazinyl)phenyl)amino)-7-oxopyrido[2,3-d]pyrimidin-8(7H)-yl)phenyl)-2-propenamide]	–	8	4
–	–	–	C=CC(=O)Nc1cccc(-n2c(=O)ccc3cnc(Nc4ccc(N5CCN(C)CC5)cc4Cl)nc32)c1 [Example 15, N-(3-(2-((2-chloro-4-(4-methyl-1-piperazinyl)phenyl)amino)-7-oxopyrido[2,3-d]pyrimidin-8(7H)-yl)phenyl)-2-propenamide]	–	11	3.5
–	–	–	C=CC(=O)Nc1cccc(-n2c(=O)ccc3cnc(Nc4ccc(NC5CN(C(C)=O)C5)cc4OC)nc32)c1 [Example 14, N-(3-(2-((4-((1-acetylazetidin-3-yl)amino)-2-methoxyphenyl)amino)-7-oxopyrido[2,3-d]pyrimidin-8(7H)-yl)phenyl)acrylamide]	–	190	24
–	–	–	C=CC(=O)Nc1cccc(-n2c(=O)cc(C)c3cnc(Nc4ccc(N5CCN(C)CC5)cc4)nc32)c1 [Example 17, N-(3-(5-methyl-2-((4-(4-methylpiperazin-1-yl)phenyl)amino)-7-oxopyrido[2,3-d]pyrimidin-8(7H)-yl)phenyl)acrylamide]	–	3.6	7.3
–	–	–	C=CC(=O)Nc1cccc(-n2c(=O)ccc3cnc(Nc4ccc(N5CCN(C)CC5)cc4)nc32)c1 [Example 4, N-(3-(2-((4-(4-methyl-1-piperazinyl)phenyl)amino)-7-oxopyrido[2,3-d]pyrimidin-8(7H)-yl)phenyl)-2-propenamide]	–	0.7	1
–	–	–	C/C=C/C(=O)Nc1cccc(-n2c(=O)ccc3cnc(Nc4ccc(N5CCN(C)CC5)cc4OC)nc32)c1 [Example 3, (2E)-N-(3-(2-((2-methoxy-4-(4-methyl-1-piperazinyl)phenyl)amino)-7-oxopyrido[2,3-d]pyrimidin-8(7H)-yl)phenyl)-2-butenamide]	–	326	126
–	–	–	COc1cc(N2CCN(C)CC2)ccc1Nc1ncc2ccc(=O)n(-c3cccc(NC(=O)CCN(C)C)c3)c2n1 [Example 13, 3-(dimethylamino)-N-(3-(2-((2-methoxy-4-(4-methylpiperazin-1-yl)phenyl)amino)-7-oxopyrido[2,3-d]pyrimidin-8(7H)-yl)phenyl)propanamide]	–	128	76
4.3	8.2	–	C=CC(=O)Nc1cccc(-n2c(=O)c(CC)cc3cnc(Nc4ccc(N5CCN(C)CC5)cc4OC)nc32)c1 [Example 6, N-(3-(6-ethyl-2-((2-methoxy-4-(4-methyl-1-piperazinyl)phenyl)amino)-7-oxopyrido[2,3-d]pyrimidin-8(7H)-yl)phenyl)-2-propenamide]	–	12	–
–	–	–	C=CC(=O)Nc1cccc(-n2c(=O)ccc3cnc(Nc4cnc(N5CCN(C)CC5)cc4OC)nc32)c1 [Example 8, N-(3-(2-((4-methoxy-6-(4-methyl-1-piperazinyl)-3-pyridinyl)amino)-7-oxopyrido[2,3-d]pyrimidin-8(7H)-yl)phenyl)-2-propenamide]	–	92	21
–	–	–	C=CC(=O)Nc1cccc(-n2c(=O)cc(C)c3cnc(Nc4ccc(N5CCOCC5)cc4OC)nc32)c1 [Example 7, N-(3-(2-((2-methoxy-4-(4-morpholinyl)phenyl)amino)-5-methyl-7-oxopyrido[2,3-d]pyrimidin-8(7H)-yl)phenyl)-2-propenamide]	undefined	–	2.81

SMILES	IC50 [2] [nM]	IC50 [3] [nM]	IC50 [5] [nM]	H1975 cell killing IC50 [1]	IC50 [1] [nM]	IC50 [4] [nM]
C=CC(=O)Nc1cccc(-n2c(=O)cc(C)c3cnc(Nc4ccc(N5CCN(C)CC5)cc4OC)nc32)c1 [Example 5]	2.8	323	8	–	4	10
